Experimental findings from patent publication US20070155779A1, “BICYCLIC HETEROARYL COMPOUNDS AS PDE10 INHIBITORS” (Pfizer Inc, priority 2006, published 2007) are described below.

By IC50 is commonly meant the midpoint of a concentration-inhibition curve.

The test has as its target PDE10 (Homo sapiens, UniProt Q9Y233). The test is described as follows: PDE10 inhibition, Scintillation Proximity Assay (SPA). The class given is biochemical. The conditions noted are these: substrate at 1/3 Km, IC50 approximates Ki. As for the experimental part:
Assay methods are available to screen a substance for inhibition of cyclic nuticleotide hydrolysis by the PDE10 and the PDEs from other gene families. The cyclic nucleotide substrate concentration used in the assay is ⅓ of the Km concentration, allowing for comparisons of IC50 values across the different enzymes. PDE activity is measured using a Scintillation Proximity Assay (SPA)-based method as previously described (Fawcett et al., 2000), The effect of PDE inhibitors is determined by assaying a fixed amount of enzyme (PDEs 1-11) in the presence of varying substance concentrations and low substrate, such that the IC50 approximates the Ki (cGMP or cAMP in a 3:1 ratio unlabelled to [^3H]-labeled at a concentration of ⅓ Km).). The final assay volume is made up to 100 μl with assay buffer [20 mM Tris-HCl pH 7.4, 5 mM MgCl2, 1 mg/ml bovine serum albumin]. Reactions are initiated with enzyme, incubated for 30-60 min at 30° C. to give <30% substrate turnover and terminated with 50 μl yttrium silicate SPA beads (Amersham) (containing 3 mM of the respective unlabelled cyclic nucleotide for PDEs 9 and 11). Plates are re-sealed and shaken for 20 min, after which the beads were allowed to settle for 30 minutes in the dark and then counted on a TopCount plate reader (Packard, Meriden, Conn.).

SMILES strings stand for the structures.

PDE10, sequence (Q9Y233 whole entry): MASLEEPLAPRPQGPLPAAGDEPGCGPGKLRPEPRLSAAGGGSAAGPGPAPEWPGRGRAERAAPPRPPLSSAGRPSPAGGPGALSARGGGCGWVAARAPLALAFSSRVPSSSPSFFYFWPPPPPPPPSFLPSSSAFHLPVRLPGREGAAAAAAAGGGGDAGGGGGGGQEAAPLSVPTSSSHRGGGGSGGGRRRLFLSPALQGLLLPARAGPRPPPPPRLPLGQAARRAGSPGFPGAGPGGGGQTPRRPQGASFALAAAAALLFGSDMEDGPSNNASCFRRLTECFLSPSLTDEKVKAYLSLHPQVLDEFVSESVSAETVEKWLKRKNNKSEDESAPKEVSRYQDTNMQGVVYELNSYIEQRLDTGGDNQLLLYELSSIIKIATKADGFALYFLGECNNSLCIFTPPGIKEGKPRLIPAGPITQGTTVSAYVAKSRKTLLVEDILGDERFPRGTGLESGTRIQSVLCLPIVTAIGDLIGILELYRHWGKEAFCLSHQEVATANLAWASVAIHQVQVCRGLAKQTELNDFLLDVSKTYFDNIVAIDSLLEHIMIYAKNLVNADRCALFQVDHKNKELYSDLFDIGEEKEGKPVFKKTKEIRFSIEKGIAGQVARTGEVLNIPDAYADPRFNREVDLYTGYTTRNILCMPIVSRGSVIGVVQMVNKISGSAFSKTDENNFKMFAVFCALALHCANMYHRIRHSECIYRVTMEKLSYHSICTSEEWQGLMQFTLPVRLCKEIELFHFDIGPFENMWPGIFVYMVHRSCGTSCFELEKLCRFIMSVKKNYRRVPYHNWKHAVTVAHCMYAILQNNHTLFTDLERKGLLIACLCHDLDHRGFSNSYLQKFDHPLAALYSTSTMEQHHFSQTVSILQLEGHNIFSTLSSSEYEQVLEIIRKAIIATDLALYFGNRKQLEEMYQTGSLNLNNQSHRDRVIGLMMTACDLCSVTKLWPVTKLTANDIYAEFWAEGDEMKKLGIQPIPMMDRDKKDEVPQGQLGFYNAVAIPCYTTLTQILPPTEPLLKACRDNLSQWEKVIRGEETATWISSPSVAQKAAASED

`Cn1c(COc2ccc(-c3n[nH]cc3-c3ccncc3)cc2)nc2ccccc21` [Example 1, 1-Methyl-2-[4-(4-pyridin-4-yl-1H-pyrazol-3-yl)-phenoxymethyl]-1H-benzoimidazole] showed an IC50 of 79 nM.

`CCn1cc(-c2ccncc2)c(-c2ccc(OCc3nc4ccccc4n3C)cc2)n1` [Example 2, 2-[4-(1-Ethyl-4-pyridin-4-yl-1-H-pyrazol-3-yl)-phenoxylmethyl]-1-methyl-1-1H-benzoimidazole] yielded an IC50 of 1.38 nM.

Compound `C[C@@H](O)Cn1cc(-c2ccncc2)c(-c2ccc(OCc3nc4ccccc4n3C)cc2)n1` [Example 3, 1-{3-[4(1-Methyl-1H-benzoimidazol-2-ylmethoxy)-phenyl]-4-pyridin-4-yl-pyrazol-1-yl)-propan-2-ol] yielded a 50% inhibitory concentration (IC50) of 2.6 nM.

Consider `Cn1c(COc2ccc(-c3oncc3-c3ccncc3)cc2)nc2ccccc21` [Example 4, 1-Methyl-2-[4-(4-pyridin-4-yl-isoxazol-5-yl)-phenoxymethyl]-1-H-benzoimidazole], for which the midpoint of inhibition, the IC50, lay at 4.94 nM.

The compound `Cn1cc(-c2ccncc2)c(-c2ccc(OCc3nc4ccccc4n3C)cc2)n1` [Example 5, 1-Methyl-2-[4-(1-methyl-4-pyridin-4-yl-1H-pyrazol-3-yl)-phenoxymethyl]-1-H-benzoimidazole] showed a half-inhibitory concentration (IC50) of 0.56 nM.

For `Cn1ncc(-c2ccncc2)c1-c1ccc(OCc2nc3ccccc3n2C)cc1` [Example 6, 1-Methyl-2-[4-(2 methyl-4-pyridin-4-yl-2H-pryazol-3-yl)-phenoxymethyl]-1H-benzoimidazole], the IC50 worked out at 1.84 nM.

The compound `Cn1cc(-c2ccncc2)c(-c2ccc(OCc3nc4ccccc4n3CF)cc2)n1` [Example 7, 1-Fluoromethyl-2-[4-(1-methyl-4-pyridin-4-yl-1H-pyrazol-3-yl)-phenoxymethyl]-1H-benzoimidazole] gave a half-maximal inhibitory concentration (IC50) of 0.98 nM.

`CC(C)n1c(COc2ccc(-c3nn(C)cc3-c3ccncc3)cc2)nc2ccccc21` [Example 8, 1-Isopropyl-2-[4-(1-methyl-4-pyridin-4-yl-1H-pyrazol-3-yl)-phenoxymethyl]-1H-benzoimidazole]: 8.91 nM corresponded to half-maximal inhibition (IC50).

For the compound `Cn1cc(-c2ccncc2)c(-c2ccc(OCc3nc4ccccc4n3C3CC3)cc2)n1` [Example 9, 1-Cyclopropyl-2-[4-(1-methyl-4-pyridin-4-yl-1H-pyrazol-3-yl)-phenoxymethyl]-1-H-benzoimidazole], it took 0.69 nM to reach half-maximal inhibition (IC50).

`COCCn1c(COc2ccc(-c3nn(C)cc3-c3ccncc3)cc2)nc2ccccc21` [Example 10, 1-(2-Methoxy-ethyl)-2[4-(1-methyl-4-pyridin-4-yl-1H-pyrazol-3-yl)-phenoxymethyl]-1H-benzoimidazole] yielded an IC50 of 1.6 nM.

Regarding `Cn1cc(-c2ccncc2)c(-c2ccc(OCc3cn4ccccc4n3)cc2)n1` [Example 11, 2-[4-(1-Methyl-4-pyridin-4yl-1H-pyrazol-3-yl)-phenoxymethyl]-imidazo[1,2-a]pyridine], the IC50 amounted to 0.53 nM.

The compound `Cn1ncc(-c2ccncc2)c1-c1ccc(OCc2cn3ccccc3n2)cc1` [Example 12] gave an IC50 of 0.53 nM.

On to `Cn1cc(-c2ccncc2)c(-c2ccc(OCc3nc4ccccn4n3)cc2)n1` [Example 13, 2-[4-(1-Methyl-4-pyridin-4-yl-1H-pyrazol-3-yl)-phenoxymethyl]-[1,2,4]triazolo[1,5-a]-pyridine], for which the IC50 was found to be 1.14 nM.

`FC(F)(F)Cn1cc(-c2ccncc2)c(-c2ccc(OCc3nc4ccccn4n3)cc2)n1` [Example 14, 2-{4-[4-Pyridin-4-yl-1-(2,2,2-trifluoro-ethyl)-1-H-pyrazol-3-yl]-phenoxymethyl}-[1,2,4]triazolo[1,5-a]pyridine]: the IC50 is 0.56 nM.

In turn, `FC(F)(F)Cn1cc(-c2ccncc2)c(-c2ccc(OCc3cn4ccccc4n3)cc2)n1` [Example 15] displayed an IC50 of 0.39 nM.

In turn, `Cn1c(COc2ccc(-c3nn(CC(F)(F)F)cc3-c3ccncc3)cc2)nc2ccccc21` [Example 16, 1-Methyl-2-{4-[4-pyridin-4-yl-1-(2,2,2-trifluoro-ethyl)-1H-pyrazol-3yl]-phenoxymethyl}-1H-benzoimidazole] came in with an IC50 of 0.21 nM.

As for `FCn1c(COc2ccc(-c3nn(CC(F)(F)F)cc3-c3ccncc3)cc2)nc2ccccc21` [Example 17, 1-Fluoromethyl-2-{4-[4-pyridin-4-yl-1-(2.2.2-trifluoro-ethyl)-1-H-pyrazol-3-yl]-phenoxymethyl}-1H-benzoimidazole], the IC50 was 0.75 nM.

On to `Cn1cc(-c2ccncc2)c(-c2ccc(OCc3nc4ncccc4n3C)cc2)n1` [Example 18], for which inhibition was half-maximal at 9.31 nM (IC50).

For `Cn1cc(-c2ccncc2)c(-c2ccc(OCc3nc4cnccc4n3C)cc2)n1` [Example 19, 1-Methyl-2-[4-(1-methyl-4-pyridin-4-yl-1H-pyrazol-3-yl)-phenoxymethyl]-1-H-imidazo[4,5-c]pyridine], the IC50 is 133 nM.

`Cn1cc(-c2ccncc2)c(-c2ccc(OCc3nc4cc(F)c(F)cc4n3C)cc2)n1` [Example 20, 5,6-Difluoro-1-methyl-2-[4-(1-methyl-4-pyridin-4-yl-1H-pyrazol-3-yl)-phenoxymethyl]-1H-benzoimidazole] gave an IC50 of 16.7 nM.

For the compound `Cn1cc(-c2ccncc2)c(-c2ccc(OCc3nc4ccccc4s3)cc2)n1` [Example 21, 2-[4-(1-Methyl-4-pyridin-4-yl-1H-pyrazol-3-yl)-phenoxymethyl]-benzothiazole], half-maximal inhibition (IC50) was put at 0.89 nM.

`FC(F)(F)Cn1cc(-c2ccncc2)c(-c2ccc(OCc3nc4ccccc4s3)cc2)n1` [Example 22, 2-{4-[4-Pyridin-4-yl-1-(2,2 2-trifluoro-ethyl)-1H-pyrazol-3-yl]-phenoxymethyl}-benzothiazole] showed a concentration for half-maximal inhibition (IC50) of 1.48 nM.

Take `Cn1cc(-c2ccncc2)c(-c2ccc(OCc3nc4cccc5c4n3CCC5)cc2)n1` [Example 23, 2-[4-(1-Methyl-4-pyridin-4-yl-1H-pyrazol-3-yl)-phenoxymethyl]-5,6-dihydro-4H-imidazo[4,5,1-ij]quinoline]: the midpoint of inhibition, the IC50, lay at 3.09 nM.

In the case of `Cc1c(COc2ccc(-c3nn(C)cc3-c3ccncc3)cc2)nc2ccccn12` [Example 24, 3-Methyl-2-[4-(1-methyl-4-pyridin-4-yl-1H-pyrazol-3-yl)-phenoxymethyl]-imidazo[1,2-a]pyridine], the IC50 was 1.4 nM.

`Cn1cc(-c2ccncc2)c(-c2ccc(OCc3nc4ccccc4n3CC(F)(F)F)cc2)n1` [Example 25, 2-[4-(1-Methyl-4-pyridin-4-yl-1H-pyrazol-3-yl)-phenoxymethyl]-1-(2,2,2trifluoro-ethyl)-1H-benzoimidazole]: the IC50 amounted to 10 nM.

`Cn1c(COc2ccc(-n3nccc3-c3ccncc3)cc2)nc2ccccc21` [Example 26, 1-Methyl-2-[4-(5-pyridin-4-yl-pyrazol-1-yl)-phenoxymethyl]-1H-benzoimidazole]: the IC50 was found to be 3.05 nM.

For `Cn1cc(-c2ccncc2)c(-c2ccc(CCc3nc4ccccc4n3C)cc2)n1` [Example 27, 1-Methyl-2{2-[4-(1methyl-4-pyridin-4-yl-1H-pyrazol-3-yl)-phenyl]-ethyl}-1H-benzoimidazole], the IC50 was determined as 16.2 nM.

In the case of `Cn1c(COc2ccc(-c3nncn3-c3ccncc3)cc2)nc2ccccc21` [Example 28, 1-Methyl-2[4-(4-pyridin-4-yl-4H-[1,2,4]triazol-3-yl)-phenoxymethyl]-1H-benzoimidazole], the IC50 was 46.3 nM.

`Cn1cc(-c2ccncc2)c(-c2ccc(OCc3cn4ccsc4n3)cc2)n1` [Example 32, 6-[4-(1-Methyl-4-pyridin-4-yl-1H-pyrazol-3-yl)-phenoxymethyl]-imidazo[2,1-b]thiazole] showed an IC50 of 12 nM.

`Cn1c(COc2ccc(-n3ccnc3-c3ccncc3)cc2)nc2ccccc21` [Example 37, 2-((4-(2-(pyridin-4-yl)-1H-imidazol-1-yl)phenoxy)methyl)-1-methyl-1H-benzo[d]imidazole] came in with an IC50 of 28.8 nM.

As to `Oc1ccc(-n2ccnc2-c2ccncc2)cc1` [Preparation 37, 4-(2-(pyridin-4-yl)-1H-imidazol-1-yl)phenol], the IC50 was found to be 8.82 nM.
